{
  "source": "patent US20020088029A1",
  "about": "“Plant transformation methods” (priority 1998, published 2002)",
  "key": {"cell line HE/89": {"system": "cell line HE/89", "test": "DNA fragmentation (DNA ladders) in maize cells inoculated with Agrobacterium", "format": "cell-based, Zea mays L.", "conditions": "HE/89 cells inoculated with Agrobacterium, agent added", "method": "In order to determine the mechanism of cell death induced by Agrobacterium in maize tissues, genomic DNA is extracted from plant suspension cells harvested 24 or 48 hours after inoculation with Agrobacterium. Exposure to Agrobacterium causes DNA fragmentation in both maize lines, with a pattern characteristic of internucleosomal fragmentation, which is considered an early hallmark of programmed cell death. […] Furthermore, maize cells undergoing programmed cell death could not induce cell death of fresh maize embryogenic tissues.\nFurther evidence for Agrobacterium inducing DNA fragmentation is obtained by investigating the sensitivity of the process to Zn^2+ and Ca^2+. […] These characteristics are fully consistent with the effect of these divalent cations on the endogenous endonucleases responsible for DNA cleavage during apoptosis in animal system. The intensity of the ladder also is decreased by addition of cycloheximide, evidence that the process requires de novo gene expression. […] Fragmentation of DNA during apoptosis is also detected in situ by reagents that react with the exposed hydroxyls on the nucleosome units. 12 day old maize embryos from a proprietary elite line of Lancaster parentage are inoculated with LBA4404 and plated on DG4 medium supplemented with chloramben. Koziel, M.G., & al. 1993. Bio/Technology 11: 194-200. Apoptotic cells are detected by in situ staining with TACS-1 kit (Trevigen), which involves end labeling the DNA fragments by the klenow enzyme using dNTP conjugated to a detectable marker, giving a dark insoluble precipitate indicative of genomic fragmentation. Cullivier, O., Pirianov, G., Kleuser, B., Vanek, P.G., Coso, O.A., Gutking, J.S. and Spiegel, S. (1996) Nature 381, 800-803. Embryos are soaked in 3.7% formadehyde solution and processed as described by the manufacturer. To detect genomic DNA cleavage in situ, fixed embryos are treated with the TACS-1 kit. Fixed cross-sections are first treated with proteinase K for 5 min at room temperature and then dipped for 5 min into 2% hydrogen peroxide to remove endogenous peroxidase. […]"}, "[1]": {"system": "HE/89 maize friable embryogenic callus", "experimental": "The following experiments employ maize inbred lines (Zea mays L.) HE/89 and a line here designated as Elite 1. […] Suspension culture of Elite 1 is initiated from friable embryogenic callus selected from immature embryos. The HE/89 line is grown in a modified liquid N6 medium amended with 500 mg/l Bacto tryptone, 30 g/l sucrose and 0.5 mg/l 2,4-dichlorophenoxy acetic acid (2,4-D) (N6M). The Elite 1 line is grown in N6 liquid medium (Chu et al., 1975) supplemented with 30 g/l sucrose and 2 mg/l 2,4-D (2N63S). The Nicotiana tabacum cell line NT-1 grown in Murashige and Skoog medium supplemented with 2 mg/l of 2,4-D and sucrose (30 g/l) (MS3S) is used as an Agrobacterium-susceptible control. Suspension cultures are maintained in liquid medium on a rotary shaker (120 rpm) and are subcultured every 7 days.\nBacteria are grown in YP medium (5 g/L yeast extract, 10 g/l peptone, 5 g/l NaCl, pH 6.8) for 24 hr at 28° C. […]\nFriable embryogenic callus of HE/89 maize and of a proprietary elite inbred maize maintained in liquid medium are incubated with Agrobacterium for 10 min, 1 hr, 24 hr or 48 hrs prior to transfer to cefotaxim-containing medium. […] The presence or absence of necrosis is scored 2, 4 and 7 days after inoculation and the relative intensity of necrosis is expressed as follow: +, rare formation of necrosis; ++, weak necrosis; +++, strong necrosis; ++++, very strong necrosis."}, "maize embryos": {"system": "maize embryos", "test": "Inoculation of maize embryos with LBA4404 with or without silver nitrate, callus initiation", "format": "cell-based", "experimental": "Inhibition of Agrobacterium-induced programmed cell death Preparation of tissues for inoculation with Agrobacterium: Immature embryos (1.2 to 2.2 mm in length) are aseptically excised 14-15 days after pollination from surface-sterilized, greenhouse-grown ears and plated scutellum up on callus initiation medium, 2DG4+5 mg/l chloramben (2DG4-5Chl).\nImmature embryos are sterilized as described above and plated on callus initiation medium (2DG4-5Chl) and cultured therein for 1 to 7 days. The resulting tissue is used as samples for inoculation.\nAgrobacterium is grown for 3 days on YP medium (5 g/l yeast extract, 10 g/l peptone, 5 g/l NaCl, 15 g/l agar, pH 6.8) supplemented with 50 mg/l spectinomycin and 10 mg/l tetracycline. Bacteria are collected with a loop and suspended in N6 liquid medium at a density ranging from 10^9 to 5 10^9 cells/ml. Agrobacterium cells can also be collected from an overnight culture in YP medium and resuspended in N6 liquid medium.\nMaize tissues prepared as described above are inoculated with Agrobacterium. […] Tissues are also inoculated with a 5 μl drop 10^9 to 5×10^9 cells/ml of an Agrobacterium suspension placed on the top of the tissue."}, "maize type I callus": {"system": "maize type I callus", "test": "Inoculation of maize type I callus with or without silver nitrate, survival of tissues", "format": "cell-based", "conditions": "½ month old type I callus, co-inoculation 2DG4 + AgNO3, transfer 2DG4 + AgNO3 + Cef, 2 weeks"}, "tobacco leaf discs": {"system": "tobacco leaf discs", "conditions": "silver nitrate present during co-cultivation; LBA4404(GIGUP) 10^9 cells/ml"}},
  "data": [
    {"smiles": "C[C@@H]1C[C@@H]([C@H](O)CC2CC(=O)NC(=O)C2)C(=O)[C@@H](C)C1", "note": "[cycloheximide]", "values": [
      {"measurement": "intensity of DNA ladders (genomic fragmentation)", "setting": "cell line HE/89", "result": "decreased"}
    ]},
    {"smiles": "[Ca+2]", "note": "[Ca^2+]", "values": [
      {"measurement": "intensity of DNA ladders (genomic fragmentation)", "setting": "cell line HE/89", "result": "increased the intensity of DNA ladders"}
    ]},
    {"smiles": "CO/N=C(\\C(=O)N[C@@H]1C(=O)N2C(C(=O)O)=C(COC(C)=O)CS[C@H]12)c1csc(N)n1", "note": "[cefotaxime]", "values": [
      {"measurement": "necrosis of maize tissue", "setting": "[1]", "result": "does not cause the maize tissue to become necrotic"}
    ]},
    {"smiles": "[Zn+2]", "note": "[Zn^2+]", "values": [
      {"measurement": "intensity of DNA ladders (genomic fragmentation)", "setting": "cell line HE/89", "result": "markedly reduced genomic fragmentation"}
    ]},
    {"smiles": "O=[N+]([O-])[O-].[Ag+]", "note": "[AgNO3, silver nitrate]", "values": [
      {"measurement": "embryos able to produce embryogenic calli", "setting": "maize embryos; embryos plated on medium containing silver nitrate after Agrobacterium inoculation", "result": "About 50%"},
      {"measurement": "Score (callus initiation)", "setting": "maize embryos; no pretreatment, co-inoculation 2DG4, transfer 2DG4 + AgNO3 + Cef, LBA4404 (GIGUP) 10^9 cells/ml, two weeks after inoculation", "result": 30, "unit": "%"},
      {"measurement": "Score (survival of tissues)", "setting": "maize type I callus; pretreatment 2DG4 + AgNO3", "result": 95, "unit": "%"},
      {"measurement": "Score (survival of tissues)", "setting": "maize type I callus; pretreatment 2DG4", "result": 75, "unit": "%"},
      {"measurement": "GUS activity in tobacco leaves (Agrobacterium virulence)", "setting": "tobacco leaf discs", "result": "No significant decrease"}
    ]}
  ]
}
